Assays:
[1] = target: T1, Brd4 bromodomain 1 (BRD4(1)) (Homo sapiens, UniProt O60885); experiment: Inhibition of tetra-acetylated histone H4 binding to BET bromodomain (HTRF/FRET); settings: His-tagged bromodomain 200 nM, tetra-acetylated histone H4 peptide, 2 h room temperature
T1 construct: made in house; host or cells: E. coli BL21(DE3)
Description: Proteins were cloned and overexpressed with a N-terminal 6× His tag, then purified by nickel affinity followed by size exclusion chromatography. Briefly, E. coli BL21(DE3) cells were transformed with a recombinant expression vector encoding N-terminally Nickel affinity tagged bromodomains from Brd2, Brd3, Brd4. Cell cultures were incubated at 37° C. with shaking to the appropriate density and induced overnight with IPTG. The supernatant of lysed cells was loaded onto Ni-IDA column for purification. Eluted protein was pooled, concentrated and further purified by size exclusion chromatography. Fractions representing monomeric protein were pooled, concentrated, aliquoted, and frozen at −80° C. for use in subsequent experiments.
Binding of tetra-acetylated histone H4 and BET bromodomains was confirmed by a Homogenous Time Resolved Fluorescence Resonance Energy Transfer (HTRF®) method. N-terminally His-tagged bromodomains (200 nM) and biotinylated tetra-acetylated historic H4 peptide (25-50 nM, Millipore) were incubated in the presence of Europium Cryptate-labeled streptavidin (Cisbio Cat. #610SAKLB) and XL665-labeled monoclonal anti-His antibody (Cisbio Cat. #61HISXLB) in a white 96 well microtiter plate (Greiner). For inhibition assays, serially diluted test compound was added to these reactions in a 0.2% final concentration of DMSO. Duplicate wells were used for each concentration tested. Final buffer concentrations were 30 mM HEPES pH 7.4, 30 mM NaCl, 0.3 mM CHAPS, 20 mM phosphate pH 7.0, 320 mM KF, 0.08% BSA. After a 2 h incubation at room temperature, fluorescence was measured at 665 and 620 nm with a SynergyH4 plate reader (Biotek). The binding inhibitory activity was shown by a decrease in 665 nm relative to […] fluorescence. IC50 values were determined from a dose response curve.

hIL-17 mRNA = experiment: Inhibition of hIL-17 mRNA transcription in OKT3-stimulated peripheral blood mononuclear cells; format: cell-based; settings: human PBMC, 1 h pretreatment, OKT3 antibody, 6 h; read-out: IL-17 activity
Description: Human peripheral blood mononuclear cells were plated (2.0×10^5 cells per well) in a 96-well plate in 45 μL. OpTimizer T Cell expansion media (Life Technologies) containing 20 ng/ml IL-2 and penicillin/streptomycin. The cells were treated with increasing concentrations of the test compound or DMSO (0.1%), and incubated at 37° C., 5% CO2 for 1 h before addition of 10× stock OKT3 antibody at 10 ug/ml in media. Triplicate wells were used for each concentration. Cells were incubated at 37° C., 5% CO2 for 6 h before the cells were harvested. At time of harvest, cells were pelleted by centrifugation at 800 rpm for 5 min. Cells were harvested using the mRNA Catcher PLUS kit according to manufacturer's instructions. The eluted mRNA was then used in a one-step quantitative real-time PCR reaction, using components of the RNA UltraSense™ One-Step Kit (Life Technologies) together with Applied Biosystems TaqMan® primer-probes for hIL-17 and Cyclophilin. Real-time PCR plates were run on a ViiA™ 7 real time PCR machine (Applied Biosystems), data was analyzed, normalizing the Ct values for hIL-17 to an internal control, prior to determining the fold induction of each unknown sample, relative to the control.

hIL-6 mRNA = experiment: Inhibition of hIL-6 mRNA transcription in LPS-stimulated U937 cells; format: cell-based; settings: Homo sapiens, U-937; PMA-differentiated U937 cells, 1 h pretreatment, LPS 1 ug/mL, 3 h; read-out: IL-6 activity
Description: Human leukemic monocyte lymphoma U937 cells (CRL-1593.2) were plated at a density of 3.2×10^4 cells per well in a 96-well plate in 100 μL RPMI-1640 containing 10% FBS and penicillin/streptomycin, and differentiated into macrophages for 3 days in 60 ng/mL PMA ([…]) at 37° C. in 5% CO2 prior to the addition of compound. The cells were pretreated for 1 h with increasing concentrations of test compound in 0.1% DMSO prior to stimulation with 1 ug/mL lipopolysaccharide from Escherichia coli. Triplicate wells were used for each concentration. The cells were incubated at 37° C., 5% CO2 for 3 h before the cells were harvested. At time of harvest, media was removed and cells were rinsed in 200 μL PBS. Cells were harvested using the mRNA Catcher PLUS kit according to manufacturer's instructions. The eluted mRNA was then used in a one-step quantitative real-time PCR reaction using components of the RNA UltraSense™ One-Step Kit (Life Technologies) together with Applied Biosystems TaqMan® primer-probes for hIL-6 and Cyclophilin. Real-time PCR plates were run on a ViiA™ 7 real time PCR machine (Applied Biosystems), data was analyzed, normalizing the Ct values for hIL-6 to an internal control, prior to determining the fold expression of each sample, relative to the control.

[2] = system: c-myc in Human AML MV4-11 cells; experiment: Inhibition of cMYC expression in cancer cell lines (mRNA, real-time PCR); format: cell-based; settings: 3 h, cMYC mRNA normalized to Cyclophilin; for IC50: Homo sapiens
Description: MV4-11 cells (CRL-9591) were plated at a density of 2.5×10^4 cells per well in 96 well U-bottom plates and treated with increasing concentrations of test compound or DMSO (0.1%) in IMDM media containing 10% FBS and penicillin/streptomycin, and incubated for 3 h at 37° C. Triplicate wells were used for each concentration. Cells were pelleted by centrifugation and harvested using the mRNA Catcher PLUS kit according to manufacturer's instructions. The eluted mRNA isolated was then used in a one-step quantitative real-time PCR reaction, using components of the RNA UltraSense™ One-Step Kit (Life Technologies) together with Applied Biosystems TaqMan® primer-probes for cMYC and Cyclophilin. Real-time PCR plates were run on a ViiA™ 7 real time PCR machine (Applied Biosystems), data was analyzed, normalizing the Ct values for cMYC to an internal control, prior to determining the fold expression of each sample, relative to the control.

Human AML MV-4-11 cells = experiment: Inhibition of cell proliferation in cancer cell lines (CellTiter Aqueous One); format: cell-based; settings: MV4-11 cells, 72 h; for IC50: Homo sapiens
Description: MV4-11 cells (CRL-9591) were plated at a density of 5×10^4 cells per well in 96 well flat bottom plates and treated with increasing concentrations of test compound or DMSO (0.1%) in IMDM media containing 10% FBS and penicillin/streptomycin. Triplicate wells were used for each concentration and a well containing only media was used as a control. Plates were incubated at 37° C., 5% CO2 for 72 h before adding 20 μL of the CellTiter Aqueous One Solution (Promega) to each well and incubated at 37° C., 5% CO2 for an additional 3-4 h. The absorbance was read at 490 nm in a spectrophotometer and the percentage of cell titer relative to DMSO-treated cells was calculated after correcting for background by subtracting the blank well's signal. IC50 values were calculated using the GraphPad Prism software.

IC50 [1] [nM] | IC50 (hIL-17 mRNA) [nM] | IC50 (hIL-6 mRNA) [nM] | IC50 (Human AML MV-4-11 cells) [nM] | SMILES | IC50 [2] [nM] | c-myc activity [2] | Cell Proliferation activity (Human AML MV-4-11 cells)
≤ 300 | 300 to 3000 | 300 to 3000 | 300 to 3000 | Cc1noc(C)c1-c1c[nH]c(=O)c(NCc2ccccc2)c1 [Example 4, 3-(benzylamino)-5-(3,5-dimethylisoxazol-4-yl)pyridin-2(1H)-one] | 300 to 3000 | – | –
300 to 3000 | – | 300 to 3000 | 3000 to 30000 | Cc1noc(C)c1-c1c[nH]c(=O)c(OCc2ccccc2)c1 [Example 14, 3-(benzyloxy)-5-(3,5-dimethylisoxazol-4-yl)pyridin-2(1H)-one] | 3000 to 30000 | – | –
≤ 300 | 300 to 3000 | 300 to 3000 | 3000 to 30000 | Cc1noc(C)c1-c1c[nH]c(=O)c(NCc2ccccn2)c1 [Example 17, 5-(3,5-dimethylisoxazol-4-yl)-3-((pyridin-2-ylmethyl)amino)pyridin-2(1H)-one] | 300 to 3000 | – | –
≤ 300 | 300 to 3000 | 300 to 3000 | 300 to 3000 | Cc1noc(C)c1-c1c[nH]c(=O)c(NC(C)c2ccccn2)c1 (stereo not shown) [Example 20, 5-(3,5-dimethylisoxazol-4-yl)-3-((1-(pyridin-2-yl)ethyl)amino)pyridin-2(1H)-one] | 300 to 3000 | – | –
≤ 300 | – | 300 to 3000 | 300 to 3000 | Cc1noc(C)c1-c1c[nH]c(=O)c(NCc2ccc(F)cc2)c1 [Example 21, 5-(3,5-dimethylisoxazol-4-yl)-3-((4-fluorobenzyl)amino)pyridin-2(1H)-one] | 300 to 3000 | – | –
≤ 300 | – | 3000 to 30000 | – | Cc1noc(C)c1-c1c[nH]c(=O)c(NCc2ccc(I)cc2)c1 [Example 24, 5-(3,5-dimethylisoxazol-4-yl)-3-((4-iodobenzyl)amino)pyridin-2(1H)-one] | – | Not Active | Not Active
300 to 3000 | – | 300 to 3000 | 3000 to 30000 | Cc1noc(C)c1-c1c[nH]c(=O)c(OCc2ccc(F)cc2)c1 [Example 27, 5-(3,5-dimethylisoxazol-4-yl)-3-((4-fluorobenzyl)oxy)pyridin-2(1H)-one] | 300 to 3000 | – | –
≤ 300 | – | 300 to 3000 | 300 to 3000 | Cc1noc(C)c1-c1c[nH]c(=O)c(NCc2nccs2)c1 [Example 30, 5-(3,5-dimethylisoxazol-4-yl)-3-((thiazol-2-ylmethyl)amino)pyridin-2(1H)-one] | 3000 to 30000 | – | –
300 to 3000 | – | 300 to 3000 | 3000 to 30000 | Cc1noc(C)c1-c1c[nH]c(=O)c(NCc2ccc3ccccc3c2)c1 [Example 33, 5-(3,5-dimethylisoxazol-4-yl)-3-((naphthalen-2-ylmethyl)amino)pyridin-2(1H)-one] | 3000 to 30000 | – | –
≤ 300 | – | 300 to 3000 | 300 to 3000 | Cc1noc(C)c1Nc1cc(-c2c(C)noc2C)c[nH]c1=O [Example 34, 5-(3,5-dimethylisoxazol-4-yl)-3-((3,5-dimethylisoxazol-4-yl)amino)pyridin-2(1H)-one] | 300 to 3000 | – | –
≤ 300 | – | 300 to 3000 | 300 to 3000 | Cc1noc(C)c1-c1c[nH]c(=O)c(NCc2ccc3ccccc3n2)c1 [Example 35, 5-(3,5-dimethylisoxazol-4-yl)-3-((quinolin-2-ylmethyl)amino)pyridin-2(1H)-one] | 3000 to 30000 | – | –
≤ 300 | – | 300 to 3000 | 3000 to 30000 | Cc1noc(C)c1-c1c[nH]c(=O)c(NCc2ccc(C#N)s2)c1 [Example 36, 5-(((5-(3,5-dimethylisoxazol-4-yl)-2-oxo-1,2-dihydropyridin-3-yl)amino)methyl)thiophene-2-carbonitrile] | 3000 to 30000 | – | –
300 to 3000 | – | 300 to 3000 | – | Cc1noc(C)c1-c1c[nH]c(=O)c(NCc2ncccc2Cl)c1 [Example 37, 3-(((3-chloropyridin-2-yl)methyl)amino)-5-(3,5-dimethylisoxazol-4-yl)pyridin-2(1H)-one] | – | Not Active | Not Active
≤ 300 | – | ≤ 300 | 300 to 3000 | Cc1noc(C)c1-c1c[nH]c(=O)c(NCc2cccc3ncccc23)c1 [Example 39, 5-(3,5-dimethylisoxazol-4-yl)-3-((quinolin-5-ylmethyl)amino)pyridin-2(1H)-one] | 300 to 3000 | – | –
300 to 3000 | – | 300 to 3000 | 3000 to 30000 | Cc1noc(C)c1-c1c[nH]c(=O)c(NCc2nc3ccccc3s2)c1 [Example 40, 3-((benzo[d]thiazol-2-ylmethyl)amino)-5-(3,5-dimethylisoxazol-4-yl)pyridin-2(1H)-one] | 300 to 3000 | – | –
300 to 3000 | – | 3000 to 30000 | – | Cc1ncccc1Oc1cc(-c2c(C)noc2C)cnc1O [Example 43, 5-(3,5-dimethylisoxazol-4-yl)-3-((2-methylpyridin-3-yl)oxy)pyridin-2-ol] | – | Not Active | Not Active

— patent publication US10710992B2, “Substituted pyridinones as bromodomain inhibitors” (Zenith Epigenetics Ltd., priority 2014, dated 2020)
